SMILES strings stand for the structures. Counter-ions that a name gives are not always drawn.

The first assay relates to rat primary OPC cultures. The assay can be described thus: Differentiation of rat primary OPC into MBP+ OLs. Type of assay: cell-based. Particulars: 96 h, 4 days of differentiation, read-out: MBP+ differentiation (MBP+/SOX10+ OLs plus compounds / plus basal medium). The method, then:
Secondary validation on primary rat OPC differentiation. Re-validation of the best performing compounds promoting OPC differentiation (fold change >1.5) was performed on primary rat OPC cultures in 96 well-plate run in triplicates by triple immunolabeling for CNPase, MBP and SOX10 as a readout. Compounds at […] were added for 4 days of differentiation and then cell cultures were imaged with ArrayScanXTI platform, number of MBP+OLs were quantified by semi-automated software. Basal medium served as a negative control, 9 cis-RA ([…]) was a positive control.
Re-validation of the 49 compounds selected from the short list (160 compounds) using rat primary OPC cultures (compounds tested in triplicates in 3 independent experiments. The secondary validation screen of these compounds performed on rat primary OPC cultures selected 17 best lead compounds with a pro-differentiation activity (MBP+/SOX10+OLs plus compounds/MBP+SOX10+ plus basal medium fold increase) induced a strong differentiation into MBP+OLs (fold increase >1.6). Results are shown in FIG. 7.
Take `CCOC(=O)c1cnc2c(cnn2CC)c1NN=C(C)C` [Etazolate]: the fold induction at 1 µM was more than 1.6.

Take `COCCNCc1ccc(-c2cc3nccc(Oc4ccc(NC(=S)NC(=O)Cc5ccc(F)cc5)cc4F)c3s2)nc1` [MGCD-265]: the fold induction at 1 µM is more than 1.6. Still for that read-out and setting: with `Cc1[nH]c(/C=C2\C(=O)Nc3ccc(F)cc32)c(C)c1C(=O)NC[C@H](O)CN1CCOCC1` [SU14813] the figure was more than 1.6.

In a further assay the test system is murine cortical neurons (14 DIV). The assay can be described thus: NMDA-mediated neuroprotective assay (CCK8 viability). Type of assay: cell-based, mouse. Particulars: 1 μM, 3 h pre-treatment, NMDA 8 μM 24 h, p<0.05. The method, then: To assess neuroprotective activity of 160 selected non-toxic compounds on primary murine cortical neurons, obtained as described in the previous paragraph, ([…]), cultures were pre-treated with 1 μM compounds for either 3 or 24 hours, followed by 24 hours chronic stimulation with NMDA (8 μM) to induce neuronal damage. Each test plate included: a negative control (untreated), vehicle-treated control (0.02% vol/vol DMSO), a positive neurotoxic control—staurosporine 0.1 μM, a stressor—NMDA 8 μM, a positive neuroprotective control—NAC 300 μM, and a combination of stressor +neuroprotective molecule (NMDA+NAC). Cell viability was measured with Cell Counting Kit-8 assay compared to NMDA-treated control.
The potential neuroprotective activity of 160 selected non-toxic compounds was evaluated on murine cortical neurons (14 DIV) with either 3 h (FIG. 13) or 24 h compounds pre-treatment (FIG. 14). In assay with 3 h pre-treatment, 17 compounds were identified as potential NMDA-neuroprotective hits (marked with black asterisk in FIG. 13, stat. significant at p<0.05, Kruskal-Wallis test with post-hoc two-stage linear step-up procedure of Benjamini, Krieger and Yekutieli multiple comparison correction).
For `C[C@H](Nc1ncnc2[nH]cnc12)c1cc2ccc(F)cc2nc1-c1ccccn1` [AMG-319], the “neuroprotection of viability/metabolic activity against NMDA” value is “hit compounds”. With `CC(=O)Nc1cccc2c1c(Sc1ccc(Cl)cc1)c(C)n2CC(=O)O` [AZD1981], the “neuroprotection of viability/metabolic activity against NMDA” value was “hit compounds”. On the same count and under the same terms, with `Nc1ncnc2nc[nH]c12` [Adenine] the entry was “hit compounds”. On the same count and under the same terms, with `CC1(C)O[C@@H]2C[C@H]3[C@@H]4C[C@H](F)C5=CC(=O)C=C[C@]5(C)[C@@]4(F)[C@@H](O)C[C@]3(C)[C@]2(C(=O)CO)O1` [Fluocinolone acetonide, Fluocinolone Acetonide] the entry was “hit compounds”; with `CN1[C@@H]2CC[C@H]1C[C@@H](OC(=O)[C@H](CO)c1ccccc1)C2` [Hyoscyamine], “hit compounds”. `N[C@@H](CO)C(=O)O` [L-Serine]: the “neuroprotection of viability/metabolic activity against NMDA” value is “hit compounds”.

For `CN(C(=O)/C=C/c1ccoc1)[C@@H]1CC[C@@]2(O)[C@H]3Cc4ccc(O)c5c4[C@@]2(CCN3CC2CC2)[C@H]1O5` [Nalfurafine hydrochloride], the “neuroprotection of viability/metabolic activity against NMDA” value is “hit compounds”. Same read-out and setting: with `Cn1c(=O)c(Oc2ccc(F)cc2F)cc2cnc(NC(CCO)CCO)nc21` [Pamapimod] the entry was “hit compounds”; with `NC(=O)[C@@H]1CC[C@H](c2ccc(OCc3ccccc3F)cc2)N1` [Raxatrigine], “hit compounds”; with `O=C(Nc1ccccc1Br)N[C@@H]1CCN(c2ccc(C(F)(F)F)cn2)C1` [SB-705498], “hit compounds”.

For the next assay, the system named is mouse cortical neurons. The assay can be described thus: Morphological integrity evaluation, NMDA 8 μM (MAP2 neurite length and branching). The class given is cell-based. The settings on record: 3 h pre-treatment, NMDA 8 μM 24 h; Z>0.5 criteria. The method, then:
Apart of viability/metabolic readout in NMDA-mediated neurotoxicity assay, a neuronal structural integrity was evaluated by MAP2 staining. Mouse cortical neurons (14 DIV) cultured in MW96 plates were fixed with 4% paraformaldehyde (PFA). Fixed cells were incubated with blocking solution (PBS 1×, donkey serum 5%, Triton 0.1%) for 1-hour, primary antibody (rabbit α-MAP2, 1:250, Millipore) was applied in the same solution overnight at +4° C. […] Nuclei were stained with 4′-6-diamidino-2-phenylindole (DAPI, Roche). Microscopy was performed using ArrayScan™XTI (ThermoFisher) imaging platform. 15 images per well were acquired and analyzed by CellProfiler. Total neurite length and the total number of non-trunk branches were analyzed. Total neurite length and the total number of branching were evaluated from 15 images/well, each compound or control was tested in triplicates. The total neurite length and total number of branches were converted to a standardized Z-score using formula: Xij=((Xij−μ)/σ), where xij is the raw measurement of the compound located in well (i, j), and μ and σ are, respectively, the mean and the standard deviation of all measurements of the plate.^31
The morphological integrity of mouse cortical neurons upon chronic 24 h NMDA (8 μM) exposure with compounds pre-treatment (3 h) in preventive regimen was evaluated. Control (basal), DMSO, N-acetylcysteine (NAC) served as positive controls, while staurosporine and NMDA were negative controls.
On to `CC[C@H](NC(=O)c1cc(-c2ccccc2)nc2ccccc12)c1ccccc1` [AZD-7624], for which the “preservation of neurite length and network integrity (branching)” value (shortened to “preservation”) was “preserved both neurite length and the network integrity (branching)”. Same read-out and setting: with `Nc1ncnc2nc[nH]c12` [Adenine] the entry was “preserved both neurite length and the network integrity (branching)”; with `CNC(=O)c1ccc(-c2cnc3ncc(Cc4ccc5ncccc5c4)n3n2)cc1F` [Capmatinib], “preserved both neurite length and the network integrity (branching)”.

On to `Cc1cc(F)c(C(=O)Nc2cccc(-c3nncn3C(C)C)n2)cc1-n1cnc(C2CC2)c1` [GS-4997], for which the “preservation” value is “preserved both neurite length and the network integrity (branching)”. Still for that read-out and setting: with `CN1[C@@H]2CC[C@H]1C[C@@H](OC(=O)[C@H](CO)c1ccccc1)C2` [Hyoscyamine] the entry was “preserved both neurite length and the network integrity (branching)”. The same measure, in the same setting: with `CN=C(NS(=O)(=O)c1ccc(Cl)cc1)N1C[C@H](c2ccccc2)C(c2ccc(Cl)cc2)=N1` [Ibipinabant] the entry was “preserved both neurite length and the network integrity (branching)”.

With `CC(=O)N(C)c1cccc(-c2ccnc3c(C(=O)c4cccs4)cnn23)c1` [Indiplon], the “preservation” value was “preserved both neurite length and the network integrity (branching)”. Same read-out and setting: with `N[C@@H](Cc1ccccc1)C(=O)O` [L-Phenylalanine] the entry was “preserved both neurite length and the network integrity (branching)”; with `O=C(O)[C@H](CC(=O)N1C[C@H]2CCCC[C@H]2C1)Cc1ccccc1` [Mitiglinide], “preserved both neurite length and the network integrity (branching)”. Still for that read-out and setting: with `COc1ccsc1CNCC[C@@]1(c2ccccn2)CCOC2(CCCC2)C1` [Oliceridine] the entry was “preserved both neurite length and the network integrity (branching)”; with `CNC(=O)c1ccc2cc([C@@]3(O)CCn4cncc43)ccc2c1` [Orteronel], “preserved both neurite length and the network integrity (branching)”.

As to `CN1Cc2cc(Cl)ccc2-n2c(nnc2[C@H]2CC[C@H](Oc3ccccn3)CC2)C1` [RG7314], the “preservation” value is “preserved both neurite length and the network integrity (branching)”. The same measure, in the same setting: with `O=C(O)CCn1c2c(c3ccccc31)C[C@H](NS(=O)(=O)c1ccc(F)cc1)CC2` [Ramatroban] the entry was “preserved both neurite length and the network integrity (branching)”; with `NC(=O)[C@@H]1CC[C@H](c2ccc(OCc3ccccc3F)cc2)N1` [Raxatrigine], “preserved both neurite length and the network integrity (branching)”. Same read-out and setting: with `CC[C@H](CO)Nc1nc(NCc2ccccc2)c2ncn(C(C)C)c2n1` [Seliciclib] the entry was “preserved both neurite length and the network integrity (branching)”; with `O=c1sn(-c2cccc3ccccc23)c(=O)n1Cc1ccccc1` [Tideglusib], “preserved both neurite length and the network integrity (branching)”; with `NC(=O)c1ccc(N(C(N)=O)c2c(F)cccc2F)nc1-c1ccc(F)cc1F` [VX-702], “preserved both neurite length and the network integrity (branching)”. Still for that read-out and setting: with `C[C@@H]1COC(Nc2ccc3ncnc(Nc4ccc(OCc5nccs5)c(Cl)c4)c3c2)=N1` [Varlitinib] the entry was “preserved both neurite length and the network integrity (branching)”; with `CC(C)(C)S(=O)(=O)N[C@H]1CC[C@H](C(=O)Nc2ccc(C(F)(F)F)cn2)CC1` [Velneperit], “preserved both neurite length and the network integrity (branching)”.
